Experiment: Retention time of the compound treated with FU'U ODN by HPLC analysis
Assay type: physicochemical

O=c1[nH]c(=O)n([C@H]2C[C@H](O)[C@@H](CO)O2)cc1F [FLOXURIDINE]
Retention_time: 19 min
